Laboratory results as given in patent publication US20070191435A1, “HYDROCHLORIDE SALT OF 5-[4-[2-(N-METHYL-N-(2-PYRIDYL)AMINO)ETHOXY]BENZYL]THIAZOLIDINE-2,4-DIONE” (SmithKline Beecham p.l.c., priority 2000, published 2007).

Legend:
[1] = Solid state stability of the drug substance, assayed by HPLC; assay type: physicochemical; conditions: 1 month
Procedure: The solid state stability of the drug substance was determined by storing approximately 1.0 g of the material in a glass bottle at a) 40° C./75% Relative Humidity (RH), open exposure, for 1 month and b) at 50° C., closed, for 1 month. […] Solubility of the Hydrochloride

[2] = Solubility in water, visual, confirmed by HPLC assay of a saturated solution; assay type: physicochemical; conditions: thermodynamic from solid
From the text: The visual solubility was confirmed by an HPLC assay of a saturated solution.

For `CN(CCOc1ccc(CC2SC(=O)NC2=O)cc1)c1ccccn1.Cl` (centres unmarked) [Hydrochloride, 5-[4-[2-(N-methyl-N-(2-pyridyl)amino)ethoxy]benzyl]thiazolidine-2,4-dione hydrochloride], which “HPLC assay for final content” value ([1]; 40° C./75% RH, open exposure) is on record?
Its value is 100 % initial.

And the “degradation products (HPLC)” value ([1]; 40° C./75% RH, open exposure)?
The value was “No significant degradation observed”.

And the “HPLC assay for final content” value ([1]; 50° C., closed)?
The value was 101 % initial.

What about the “degradation products (HPLC)” value ([1]; 50° C., closed) of the same molecule?
Its value is “No significant degradation observed”.

What about the solubility [2] of the same molecule?
Its solubility is 25 mg/mL.
